Test results published in patent US8455473B2, “Composition and method for irrigation of a prepared dental root canal” (The University of British Columbia, priority 2008, dated 2013).

Tests used:
[1] = test system: Enterococcus faecalis A197A; type: cell-based; settings: all exposure times (5 seconds, 30 seconds, 3 minutes); detection level 99.995% killing
Experimental: The antibacterial activity of the composition was evaluated by exposing a planktonic culture (in suspension) of Enterococcus faecalis A197A, a resistant bacterial species often isolated from treatment resistant endodontic infections (root canal infections). In the evaluation, cultures were exposed for 5 seconds, 30 seconds, and 3 minutes. Detection level was at 99.995% killing.

[2] = test system: enterococci; settings: saturated calcium hydroxide solution (pH≧12.5), in vitro; cited from earlier work
[3] = test system: yeasts; settings: saturated calcium hydroxide solution (pH≧12.5), in vitro; cited from earlier work

Structure (SMILES) | survival of Enterococcus faecalis A197A (cfu %) [1] | time to kill enterococci [2] | time to kill yeasts [3]
O=C(O)CN(CCN(CC(=O)O)CC(=O)O)CC(=O)O [17% EDTA, ethylenediamine tetraacetic acid] | 100% |  | 
[Ca+2].[OH-].[OH-] [calcium hydroxide, Calcium hydroxide] |  | ≤ 20 min | ≤ 6 h
